Publication PMC5620575 (Pharmaceutics, 2017)
Converted amounts (≈) assume the structure as drawn.

Experiments:
[1] = pharmacokinetics after single IV administration; assay type: in vivo; settings: rabbit, 5 mg/kg
Description: IV administration of the compounds under investigation, and collection of blood samples were through a catheter inserted in the marginal ear vein of the rabbit (I-Cath, CharterMed Inc., Winston-Salem, NC, USA). After IV drug administration, blood was withdrawn to fill the cannula and then reinjected three times before obtaining any blood samples to prevent contamination. Furthermore, the cannula was flushed with heparinized saline to prevent blockage of the cannula and prevent sample to sample contamination.
Urine samples were collected utilizing Foly Catheter (size French 8). The catheter was inserted into the rabbit bladder using a lubricant. When urine is collected over a specific time interval, the bladder was irrigated with 3 × 15 mL normal saline at 3 min, 6 min, and 10 min before the end of the urine collection interval [15, 16]. Irrigation of the bladder is necessary to obtain the majority of the drug eliminated in urine during the collection interval.
Three groups of rabbits (n = 4, each) received 5 mg/kg dose of each compound via the IV catheter. This dose was selected based on the results of a preliminary experiment to achieve measurable plasma concentrations for 8 h using our analytical methods, to ensure good characterization of the plasma concentration-time profile. Accurately weighed Lzd and PH027 powder were dissolved first in 600 μL of ethanol using an ultrasound water bath. The resulting solution was then diluted with normal saline to produce the solutions used for IV administration, which consist of the dose of the compound dissolved in 3 mL of 20% ethanol in normal saline. PH051 required the use of slightly larger volume of ethanol to achieve complete dissolution. So, 900 μL of ethanol were used, and the resulting solution used for IV administration consisted of PH051 dose dissolved in 3 mL of 30% ethanol in normal saline. The difference in the volume of ethanol administered, 300 μL, which was necessary to ensure complete dissolution of PH051, should not have a significant effect on the pharmacokinetic behavior of PH051. The solutions were administered slowly over a period of […] administration, serial blood and urine samples were obtained over a period of 8 h. Plasma was obtained from blood by centrifugation, and samples were kept at −80 °C until analysis. The volumes of urine samples were determined and recorded, and aliquots were kept at −80 °C until analysis.
(§1) The pharmacokinetic parameters for each of the three compounds including half-life (t1/2), volume of distribution (Vd), elimination rate constant (k), area under the plasma concentration-time curve (AUC), total body clearance (CLT), renal clearance (CLR), and oral bioavailability (F) were determined using the general pharmacokinetic parameter calculation procedures using PKPD tools for Microsoft Excel. The obtained pharmacokinetic parameters for each compound were compared using Statistical Package of Social Sciences (SPSS) to determine the difference in the pharmacokinetic behavior for the three compounds.

[2] = pharmacokinetics after single oral administration as suspension; assay type: in vivo; settings: New Zealand White, plasma, rabbit, 20 mg/kg, n = 4
Method: The pediatric feeding tube was pushed until it reached the stomach.
Three groups of rabbits (n = 4, each) received 20 mg/kg oral dose of each compound. […] Accurately weighted amounts of each compound were dissolved/suspended in 20 mL of warm normal saline using an ultrasound water bath. […] The solutions/suspensions of the three compounds were administered orally to the rabbits using a pediatric feeding tubes. After oral administration of each compound, serial blood samples were obtained through the IV catheter, over a period of 10 h after administration. Plasma was obtained from blood by centrifugation, and samples were kept at −80 °C until analysis.
as §1

[3] = pharmacokinetics after single oral administration as microemulsion; assay type: in vivo; settings: New Zealand White, plasma, rabbit, 20 mg/kg, n = 3
Method: Three groups of rabbits (n = 3, each) received 20 mg/kg oral dose of each compound in the form of microemulsion through a pediatric feeding tube. After administration, serial blood samples were obtained through the IV catheter, over a period of 10 h. Plasma was obtained from blood by centrifugation, and samples were kept at −80 °C until analysis.
as §1

[4] = tissue to plasma distribution; assay type: in vivo; settings: New Zealand White, rabbit, in vivo, 2 x 10 mg/kg IV, 2 h after second dose, n = 3, read-out: Tissue to Plasma Concentration Ratio, Kidney
Method: Three groups of White New Zealand rabbits (n = 3, each) weighing 3.0–3.5 kg were used. Each group received 10 mg/kg of one compounds administered intravenously over a period of 3–5 min, followed one hour later by a second IV dose of 10 mg/kg. Two h later, the rabbits were euthanized with an IV dose of pentobarbital. Plasma and tissue samples, including kidney, liver, lungs, spleen, heart, muscles, and vetrus fluid were collected immediately, and stored at −80 °C until analysis.
Plasma ultra-filtrate samples were analyzed using the same procedures for the plasma. Tissue homogenates were prepared by adding 1 gm of the tissues samples to 4 g of phosphate buffer, pH 7.4 (1:4, w/w), then homogenization using Tissue-Tearor, Bio-Spec Products Inc. (Bartlesville, OK, USA). Aliquots of 200 μL of tissue homogenate samples were analyzed using the procedures for the plasma and the concentrations were determined using plasma calibrators as described and validated previously for Lzd and PH027 [18].
The tissue to plasma concentration ratios for the three compounds were calculated from the ratio of the tissue homogenate concentrations corrected for the dilution during the homoginization process and the plasma concentrations. Generally, the three compounds have very good distribution to all tissues. The tissue to plasma distribution ratios for the novel compounds were more than one in kidney, lung, liver, heart, muscles and spleen, and the ratios were more than those for Lzd in all investigated tissues. Table 3, summerizes the tissue to plasma distribution ratios for the three compounds in different tissues.

[5] = test system: Staphylococcus aureus and Enterococci spp; parameters: method as in PMID 12467705, PMID 15911326, PMID 17140706, PMID 19376613, PMID 23811087; settings: clinical isolates; cited from earlier work
Escherichia coli = test system: Escherichia coli; parameters: method as in PMID 12467705, PMID 15911326, PMID 17140706, PMID 19376613, PMID 23811087; settings: cited from earlier work
Heamophilus influenzae = test system: Heamophilus influenzae; parameters: method as in PMID 12467705, PMID 15911326, PMID 17140706, PMID 19376613, PMID 23811087; settings: unit printed only for the neighbouring MICs of the sentence; cited from earlier work
Streptococcus pneumoniae = test system: Streptococcus pneumoniae; parameters: method as in PMID 12467705, PMID 15911326, PMID 17140706, PMID 19376613, PMID 23811087; settings: cited from earlier work
Moraxella catarrhalis = test system: Moraxella catarrhalis; parameters: method as in PMID 12467705, PMID 15911326, PMID 17140706, PMID 19376613, PMID 23811087; settings: cited from earlier work
S. aureus Giorgio = test system: S. aureus Giorgio; parameters: method as in ref unpublished data from Jin-Hwan Kwak at Handong Global University; settings: oral suspension 1 and 4 h after infection, survival recorded for 72 h; ref unpublished data from Jin-Hwan Kwak at Handong Global University; cited from earlier work
[6] = parameters: method as in ref 25 = [25]; 25. ZYVOXAM ® Product Monograph Pfizer Canada Inc. Kirkland, QC, Canada 2015; settings: humans; cited from earlier work
[7] = parameters: method as in unpublished data from our laboratory; settings: rabbit urine after IV administration; ref unpublished data from our laboratory; cited from earlier work
[8] = weak base; reported, no reference given; cited from earlier work
[9] = humans; cited from earlier work
[10] = White New Zealand, plasma, n = 4

Molecule `CC(=O)NC[C@H]1CN(c2ccc(N3CCOCC3)c(F)c2)C(=O)O1` [Linezolid, reference compound] has an AUC [1, 10] of 4.04 ± 1.28 µg·h/mL, a half-life [1, 10] of 52.4 ± 6.3 min and a k el ([1]; White New Zealand, plasma, n = 4, read-out: Elimination rate constant (converted)) of 0.00022 s⁻¹. The CL renal ([1]; White New Zealand, urine and plasma, from renal excretion rate and plasma drug concentration, read-out: Renal clearance (converted)) was 0.083 L/h/kg, the CLT ([1]; n = 4) was 1.24 ± 0.43 L/h/kg and the “Fraction excreted unchanged in urine” value ([1]; ratio of renal clearance to total body clearance) was 5.70%. For the same molecule, the AUC [2] was 6.25 ± 3.62 µg·h/mL, the Cmax [2] was 3.91 ± 1.01 µg/mL and the Tmax [2] was 60 min. For the same molecule, the AUC [3] was 8.35 ± 3.34 µg·h/mL, the Cmax [3] was 3.41 ± 1.8 µg/mL and the Tmax [3] was 45 min. For the same molecule, the Kp at 2 h [4] was 2.05 ± 0.067, the MIC [5] was 0.5 to 1.0 mg/L and the MIC (Escherichia coli) was over 64 mg/L. For the same molecule, the MIC (Heamophilus influenzae) was 8 mg/L (≈ 23.7 µM), the MIC (Streptococcus pneumoniae) was 0.5 mg/L (≈ 1.48 µM) and the MIC (Moraxella catarrhalis) was 8.0 mg/L (≈ 23.7 µM). The “in vivo activity against systemic mice infection” value (S. aureus Giorgio) was “better than the in vivo activity of the novel triazolyl-oxazolidinone derivatives”, the “dose excretion in urine” value [6] was 30% and the main metabolic route [7] was “metabolized mainly through oxidation”. For the same molecule, the pKa [8] was 1.4 and the plasma protein binding [9] was 30%.
